From PMC5065787 (Bioorganic & medicinal chemistry, 2016) come the findings set out here.

Changes are numbered by the printed parent chain.

In one experiment the target is T1, h15-LOX-1 Q547L (Homo sapiens, UniProt P16050, Q547L).
T1 sequence (P16050 1-662 Q547L): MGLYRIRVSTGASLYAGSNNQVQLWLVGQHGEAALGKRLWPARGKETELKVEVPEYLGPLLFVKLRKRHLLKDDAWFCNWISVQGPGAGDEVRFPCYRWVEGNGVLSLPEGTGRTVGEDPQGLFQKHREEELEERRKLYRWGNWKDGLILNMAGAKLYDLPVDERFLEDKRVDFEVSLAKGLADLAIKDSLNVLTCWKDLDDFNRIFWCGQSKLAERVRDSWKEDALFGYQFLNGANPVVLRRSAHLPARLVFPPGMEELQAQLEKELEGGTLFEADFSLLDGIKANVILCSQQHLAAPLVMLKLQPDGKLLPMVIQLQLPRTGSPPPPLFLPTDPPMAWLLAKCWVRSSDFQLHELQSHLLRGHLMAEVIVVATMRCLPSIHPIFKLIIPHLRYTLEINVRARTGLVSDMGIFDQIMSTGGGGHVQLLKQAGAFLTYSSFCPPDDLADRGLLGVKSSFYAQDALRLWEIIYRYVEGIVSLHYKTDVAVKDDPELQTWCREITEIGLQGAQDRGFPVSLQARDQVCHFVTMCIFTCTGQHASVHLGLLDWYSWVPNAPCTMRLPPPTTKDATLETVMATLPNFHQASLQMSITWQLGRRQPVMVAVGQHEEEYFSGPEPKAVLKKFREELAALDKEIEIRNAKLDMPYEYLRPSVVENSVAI
Kind of experiment: Steady-state substrate kinetics, Q547L. Type of experiment: biochemical. The conditions noted are these: error in parentheses, no unit in table (sec^−1).

A further experiment deals with T2, h15-LOX-1 E356Q (Homo sapiens, UniProt P16050, E356Q).
T2 sequence (P16050 1-662 E356Q): T1 sequence (P16050 1-662 Q547L) with E356Q, L547Q
Description: Steady-state substrate kinetics, E356Q. Type of experiment: biochemical. The conditions noted are these: error in parentheses, no unit in table (sec^−1).

Regarding `CCCCC/C=C\C/C=C\C/C=C\C/C=C\CCCC(=O)O` [AA, arachidonic acid], the kcat is reported as 2.9 (0.1) on h15-LOX-1 Q547L and 3.0 (0.1) on h15-LOX-1 E356Q.
